# Read-outs that look alike come from different tables or passages of the source.
# Experiment: Multiple ascending-dose (MAD) study, plasma pharmacokinetics
# Assay type: in vivo, human
# Details: for Cl/F / CLss/F / Css_max / Rac (AUC), accumulation ratio at steady state / Rac_Cmax, accumulation ratio at steady state / AUC(0-t) / Vd/F / Cmax / MRT inf / AUC / AUC(0-inf) / half-life / concentration at 10 day: mean (SD); for AUC(0-t) / Vd/F / Tmax / Tmax at 10 days / Cmax / MRT inf / AUC / AUC(0-inf) / half-life / concentration at 10 day: both sexes, human, plasma, oral; for MRT inf: read-out: MRT0-∞; for concentration at 10 day: read-out: Css_min
# Procedure: Three drug doses (10, 20 and 40 mg) were utilized. A total of 36 healthy subjects of both genders were assigned randomly to the three groups (n = 12), with10 subjects taking HEC113995PA·H2O tablets and 2 taking placebo. The participants in the 10 mg dose group received a single dose daily in the morning after overnight fasting, or a single dose daily after a standard meal in the 20 mg and 40 mg dose groups for 10 consecutive days. Serial blood samples were collected within 0.5 h before drug administration on days 7, 8 and 9, and before and after drug administration on days 1 and 10 to determine plasma concentration and pharmacokinetic characteristics. Safety and tolerability were evaluated on days 4, 8, 13 and 15.
# In the first dose group of single ascending-dose study, PK blood samples were collected at 0.5 h before administration and 0.5, 1, 1.5, 2, 2.5, 3, 4, 5, 6, 8, 10, 12, 24, 36, 48, and 72 h after administration. In other SAD groups, MAD groups and food effect study, PK blood samples were collected at 0.5 h before administration, and 1, 2, 3, 4, 5, 6, 7, 8, 10, 12, 24, 48, 72, 96, 120 and 144 h after administration. Approximately 4 mL of venous blood was obtained from each collection and placed in a vacuum collection vessel containing K2EDTA anticoagulant. The blood was centrifuged and packed according to the instruction provided by the Biological Sample Detection and Analysis Unit. Briefly, all samples were centrifuged at 4°C, 1,500 g for 10 min within 0.5 h after blood collection. After centrifugation, the plasma was aliquoted into two cryogenic storage tubes. The first tube (Tube A) contained at least 0.8 mL of plasma for analytical testing, and the remaining plasma is allocated into the backup tube (Tube B). The plasma samples were stored at −80°C within 1 h after aliquoting for further analysis.
# The concentration of HEC113995PA·H2O in human plasma samples (K2EDTA) was quantitatively analyzed using the LC-MS/MS method. Plasma samples (50 μL) were processed using protein precipitation with 5 μL deuterated internal standard (HEC124659) and 100 μL acetonitrile. The Shimadzu LCMS-8060 system coupled with a GL Sciences Inc. InertSustain AQ-C18 HP column (50 × 2.1 mm, 3 μm) achieved chromatographic separation through gradient elution using 0.04% TFA aqueous solution (pH 2.1) and acetonitrile at 0.4 mL/min. ESI-positive mode detection employed optimized parameters: 300°C interface temperature, 250°C DL temperature, 3 L/min nebulizer gas, and 400°C heating block temperature.
# Using WinNonlin 7.0 for non-compartmental analysis (NCA), pharmacokinetic (PK) parameters were meticulously calculated based on the actual sampling times for plasma, urine, and fecal samples from each subject post-administration. These parameters encompassed a comprehensive range, including the area under the concentration–time curve (AUC), AUC from time zero (pre-dose) to the time of the last measurable concentration (AUC0-t), and AUC from time zero (pre-dose) to infinity (AUC0-∞). Additionally, maximum observed plasma concentration (Cmax), time to achieve maximum plasma concentration (Tmax), terminal elimination half-life (t1/2), elimination rate constant (Ke), apparent volume of distribution (Vd/F), clearance rate (CL/F), and mean residence time (MRT) were also determined. The AUC0-t and AUC0-∞ values were computed using the linear trapezoidal rule method. Tmax and Cmax were ascertained based on the actual observed data. In the context of the multiple ascending-dose study, both the degree of fluctuation (DF) and the accumulation ratio at steady state (Rac) were thoroughly analyzed.
# [1] = MAD 10 mg (N = 10), D1, fasting
# [2] = MAD 20 mg (N = 9), D1, after standard meal
# [3] = MAD 20 mg (N = 9), D10, QD after standard meal
# [4] = MAD 40 mg (N = 10), D1, after standard meal
# [5] = MAD 40 mg (N = 10), D10, QD after standard meal
structure (smiles),measurement,setting,value
Cc1nc(-c2cnc(N3CCN(CCCc4c[nH]c5ccc(C#N)cc45)CC3)nc2)sc1C(N)=O [HEC113995PA·H2O],gender difference in systemic exposure,"10 mg on an empty stomach, low sample size",no significant gender difference
same,accumulation ratio,40 mg dose as printed in discussion,2.4 fold
same,continuous administration until PK steady state,10 to 40 mg daily,7 days
same,"accumulation ratios (Rac), range","10–40 mg range, discussion",1.83–2.41
same,gender difference in systemic exposure,"20 and 40 mg following a standard meal, single and multiple administrations",no apparent gender difference
same,Cl/F,[1],9.4 L/h
same,Cl/F,[2],8.1 L/h
same,CLss/F,[3],7.27 (0.97) L/h
same,Css_max,[3],202.6 (39.27) ng/mL
same,"Rac (AUC), accumulation ratio at steady state",[3],1.83 (0.16)
same,"Rac_Cmax, accumulation ratio at steady state",[3],1.96 (0.28)
same,Cl/F,[4],8.8 L/h
same,CLss/F,[5],7.25 (1.4) L/h
same,Css_max,[5],435.6 (87.5) ng/mL
same,"Rac (AUC), accumulation ratio at steady state",[5],1.96 (0.35)
same,"Rac_Cmax, accumulation ratio at steady state",[5],2.1 (0.4)
same,"accumulation ratio Rac_Cmax, arithmetic mean range","after multiple administrations, 10, 20, 40 mg groups",1.9546–2.4058
same,AUC(0-t),"10 mg, MAD 10 mg (N = 10), D1, fasting, read-out: AUC0-t",483 ng·h/mL
same,AUC(0-t),"10 mg, MAD 10 mg (N = 10), D1, fasting, read-out: AUC0–24h",486 ng·h/mL
same,Vd/F,"10 mg, MAD 10 mg (N = 10), D1, fasting, read-out: Vz/F",350 L
same,Tmax,"10 mg, MAD 10 mg (N = 10), D1, fasting, median (min, max), read-out: Tmax",5.5 h
same,Vd/F,"10 mg, MAD D10, 10 mg dose group, read-out: Vss/F",521 L
same,Tmax at 10 days,"10 mg, MAD D10, 10 mg dose group, median (min, max)",4.5 h
same,AUC(0-t),"20 mg, MAD 20 mg (N = 9), D1, after standard meal, read-out: AUC0-t",1520 ng·h/mL
same,AUC(0-t),"20 mg, MAD 20 mg (N = 9), D1, after standard meal, read-out: AUC0–24h",1530 ng·h/mL
same,Vd/F,"20 mg, MAD 20 mg (N = 9), D1, after standard meal, read-out: Vz/F",189 L
same,Tmax,"20 mg, MAD 20 mg (N = 9), D1, after standard meal, median (min, max), read-out: Tmax",5 h
same,Vd/F,"20 mg, MAD 20 mg (N = 9), D10, QD after standard meal, read-out: Vss/F",402 L
same,Tmax at 10 days,"20 mg, MAD 20 mg (N = 9), D10, QD after standard meal, median (min, max)",2 h
same,AUC(0-t),"40 mg, MAD 40 mg (N = 10), D1, after standard meal, read-out: AUC0-t",2920 ng·h/mL
same,AUC(0-t),"40 mg, MAD 40 mg (N = 10), D1, after standard meal, read-out: AUC0–24h",2930 ng·h/mL
same,Vd/F,"40 mg, MAD 40 mg (N = 10), D1, after standard meal, read-out: Vz/F",192 L
same,Tmax,"40 mg, MAD 40 mg (N = 10), D1, after standard meal, median (min, max), read-out: Tmax",5 h
same,Vd/F,"40 mg, MAD 40 mg (N = 10), D10, QD after standard meal, read-out: Vss/F",321 L
same,Tmax at 10 days,"40 mg, MAD 40 mg (N = 10), D10, QD after standard meal, median (min, max)",2.5 h
same,Tmax,"40 mg, following a single administration, 10, 20, 40 mg groups, read-out: median time to peak concentration (Tmax), range",5 to 5.5 h
same,Cmax,[1],30.6 ng/mL
same,MRT inf,[1],40 h
same,Cmax,[2],104 ng/mL
same,MRT inf,[2],25.3 h
same,AUC,[3],2790 ng·h/mL
same,AUC(0-inf),[3],5470 ng·h/mL
same,half-life,[3],38.6 h
same,concentration at 10 day,[3],66.8 ng/mL
same,Cmax,[4],208 ng/mL
same,MRT inf,[4],24.3 h
same,AUC,[5],5730 ng·h/mL
same,AUC(0-inf),[5],10500 ng·h/mL
same,half-life,[5],30.9 h
same,concentration at 10 day,[5],132 ng/mL
same,half-life,"MAD D10, 10 mg dose group",39.1 h
same,concentration at 10 day,"MAD D10, 10 mg dose group",30 ng/mL
same,AUC(0-inf),"MAD D10, head prints 20 mg (N = 9)",2490 ng·h/mL

# From article PMC11979273, “A phase I study to evaluate the safety, tolerability, and pharmacokinetics of HEC113995PA·H2O, a novel dual-acting serotonergic antidepressant, in healthy subjects” (Frontiers in Pharmacology, 2025)
